Measurements: patent US11958861B2, “Spirocyclic lactams as JAK2 V617F inhibitors” (Incyte Corporation, priority 2021, dated 2024)
Where a name gives a salt, the structure may show the parent alone.

What was measured:
[1] = biological target: T1, catalytic domain (JH1, amino acids 826-1132) of human JAK2 (Homo sapiens, UniProt O60674); assay: JAK2 LanthaScreen JH1 Binding Assay; conditions: 2 hours at 25° C.
T1 construct: catalytic domain (JH1, amino acids 826-1132) of human JAK2; purchased Carna Biosciences 08-445-20N; host or cells: baculovirus expression system
Outline: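 Reaction held 1.5 nM biotinylated FLAG-JAK2 JH1, 50 nM tracer and 0.5 nM streptavidin-Tb in pH 7.5 Tris buffer; 2 mM ATP defined nonspecific binding.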

[2] = biological target: T2, pseudo-kinase domain (JH2, amino-acids 536-812) of human V617F mutant JAK2 (Homo sapiens, UniProt O60674, F794H/V617F/W659A/W777A); assay: JAK2 LanthaScreen JH2-V617F Binding Assay; conditions: 1 hour at 25° C.
T2 construct: pseudo-kinase domain (JH2, amino-acids 536-812 with 3 surface mutations W659A, W777A, F794H); purchased BPS Bioscience 79498; host or cells: baculovirus expression system
Outline: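 Binding was measured as TR-FRET displacement of 50 nM tracer from 0.26 nM biotinylated His-Avi protein, incubated one hour at 25° C; IC50 from a four-parameter fit.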

[3] = biological target: T3, catalytic domain (JH1, amino acids 808-1132) of human JAK2 (Homo sapiens, UniProt O60674); assay: JAK2 HTRF Enzyme Activity Assay; type: biochemical; conditions: ATP 30 μM, read-out: ENZ 30UMATP
T3 construct: catalytic domain (JH1, amino acids 808-1132) of human JAK2; His (N); purchased BPS Bioscience 40450; host or cells: baculovirus expression system
Outline: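 IC50 values come from a four-parameter fit of HTRF signal (Eu-PY20 antibody/streptavidin-APC, EDTA-quenched). Reaction: 0.015 nM N-His JAK2 catalytic domain (baculovirus), 500 nM biotin-peptide, 30 μM or 1 mM ATP, Tris pH 7.5 buffer, 60 min, 25° C.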

[4] = biological target: T4, pseudo-kinase domain (JH2, amino-acids 536-812) of human Wild Type JAK2 (Homo sapiens, UniProt O60674, F794H/W659A/W777A); assay: JAK2 LanthaScreen JH2-WT Binding Assay; conditions: 1 hour at 25° C.
T4 construct: pseudo-kinase domain (JH2, amino-acids 536-812 with 3 surface mutations W659A, W777A, F794H); purchased BPS Bioscience 79463; host or cells: baculovirus expression system
Outline: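 Compounds, serially diluted, were mixed with 0.145 nM JH2 domain, 50 nM tracer and 0.25 nM streptavidin-Tb cryptate, then incubated 1 hour at 25° C before LanthaScreen reading. Wells containing 2 mM ATP defined non-specific binding. Four-parameter dose-response curves gave IC50.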

T4 sequence (O60674 536-812 W659A/W777A/F794H): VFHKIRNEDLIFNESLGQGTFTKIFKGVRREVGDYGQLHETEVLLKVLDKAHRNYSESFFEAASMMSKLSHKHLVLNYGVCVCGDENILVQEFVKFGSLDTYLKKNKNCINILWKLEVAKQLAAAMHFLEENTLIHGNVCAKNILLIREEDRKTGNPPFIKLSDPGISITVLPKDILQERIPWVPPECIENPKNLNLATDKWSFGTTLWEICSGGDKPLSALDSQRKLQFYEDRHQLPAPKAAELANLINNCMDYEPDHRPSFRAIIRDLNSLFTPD
T1 sequence (O60674 826-1132): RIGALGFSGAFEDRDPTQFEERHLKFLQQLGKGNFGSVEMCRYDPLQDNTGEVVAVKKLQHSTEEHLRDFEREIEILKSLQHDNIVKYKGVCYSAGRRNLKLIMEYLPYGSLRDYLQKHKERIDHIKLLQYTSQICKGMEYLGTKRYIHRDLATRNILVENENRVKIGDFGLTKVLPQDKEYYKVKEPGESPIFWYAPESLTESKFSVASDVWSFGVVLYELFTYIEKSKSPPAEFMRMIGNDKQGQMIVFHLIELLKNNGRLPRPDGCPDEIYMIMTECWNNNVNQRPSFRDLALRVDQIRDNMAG
T3 sequence (O60674 808-1132): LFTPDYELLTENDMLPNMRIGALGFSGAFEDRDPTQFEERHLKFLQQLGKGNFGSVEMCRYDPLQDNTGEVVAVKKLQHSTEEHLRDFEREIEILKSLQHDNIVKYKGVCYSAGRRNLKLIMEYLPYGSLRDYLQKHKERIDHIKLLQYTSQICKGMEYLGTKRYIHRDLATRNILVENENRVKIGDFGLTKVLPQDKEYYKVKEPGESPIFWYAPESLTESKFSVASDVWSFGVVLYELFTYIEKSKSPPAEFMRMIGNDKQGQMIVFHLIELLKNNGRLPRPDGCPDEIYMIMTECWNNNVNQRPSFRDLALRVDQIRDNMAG
T2 sequence (O60674 536-812 V617F/W659A/W777A/F794H): as the sequence (O60674 536-812 W659A/W777A/F794H) above, with V82F counted along it

Row | SMILES | IC50 [1] [nM] | IC50 [2] [nM] | IC50 [3] [nM] | IC50 [4] [nM]
1 | CN1C(=O)[C@]2(CCN(CC3(CC#N)CC3)C2)c2c1cnc1[nH]c(-c3cnn(C)c3)c(-c3ccc4c(cnn4C)c3)c21 (single isomer, unassigned) [Example 65] | > 2500 | ≤ 100 | > 2500 | ≤ 100
2 | CN1C(=O)C2(CCN(C3(CC#N)CCC3)CC2)c2c1cnc1[nH]c(C3=CCC(C(=O)N4CCOCC4)CC3)c(-c3ccc4c(cnn4C)c3)c21 (racemic) [Example 34, 2-(1-(6-Methyl-1-(1-methyl-1H-indazol-5-yl)-2-(4-(morpholine-4-carbonyl)cyclohex-1-en-1-yl)-7-oxo-6,7-dihydro-3H-spiro[dipyrrolo[2,3-b:3′,2′-d]pyridine-8,4′-piperidin]-1′-yl)cyclobutyl)acetonitrile, trifluoroacetate salt] | 500 to 1250 | ≤ 100 | 500 to 1250 | ≤ 100
3 | COc1c(F)cc(-c2c(-c3cnn(CC(C)(C)O)c3)[nH]c3ncc4c(c23)C2(CCN(C3(CC#N)CCC3)CC2)C(=O)N4C)cc1F [Example 47, 2-(1-(1-(3,5-Difluoro-4-methoxyphenyl)-2-(1-(2-hydroxy-2-methylpropyl)-1H-pyrazol-4-yl)-6-methyl-7-oxo-6,7-dihydro-3H-spiro[dipyrrolo[2,3-b:3′,2′-d]pyridine-8,4′-piperidin]-1′-yl)cyclobutyl)acetonitrile, trifluoroacetate salt] | > 2500 | ≤ 100 | > 2500 | ≤ 100
4 | O=C(O)C(F)(F)F.[2H]C([2H])([2H])N1C(=O)C2(CC3(CN(S(=O)(=O)CC)C3)C2)c2c1cnc1[nH]c(-c3cnn(C(C)C)c3)c(-c3ccc4c(cnn4C)c3)c21 [Example 89, 1-(Ethylsulfonyl)-2″-(1-isopropyl-1H-pyrazol-4-yl)-6″-(methyl-d3)-1″-(1-methyl-1H-indazol-5-yl)-3″,6″-dihydro-7″H-dispiro[azetidine-3,1′-cyclobutane-3′,8″-dipyrrolo[2,3-b:3′,2′-d]pyridin]-7″-one, trifluoroacetate salt] | 1250 to 2500 | ≤ 100 | 1250 to 2500 | ≤ 100
5 | CN1C(=O)C2(CCN(C(C)(C)c3c[nH]nn3)CC2)c2c1cnc1[nH]c(-c3cnn(C)c3)c(-c3ccc4c(cnn4C)c3)c21 [Example 76, 1′-(2-(1H-1,2,3-Triazol-4-yl)propan-2-yl)-6-methyl-1-(1-methyl-1H-indazol-5-yl)-2-(1-methyl-1H-pyrazol-4-yl)-3,6-dihydro-7H-spiro[dipyrrolo[2,3-b:3′,2′-d]pyridine-8,4′-piperidin]-7-one] | 100 to 500 | ≤ 100 | 100 to 500 | ≤ 100
6 | CN1C(=O)C2(CCC2)c2c1cnc1[nH]c(-c3ccc(CN4CCC(S(C)(=O)=O)CC4)cc3)c(-c3ccccc3)c21 [Example 10, 6′-Methyl-2′-(4-((4-(methylsulfonyl)piperidin-1-yl)methyl)phenyl)-1′-phenyl-3′,6′-dihydro-7′H-spiro[cyclobutane-1,8′-dipyrrolo[2,3-b:3′,2′-d]pyridin]-7′-one trifluoroacetate salt] | > 2500 | ≤ 100 | > 2500 | ≤ 100
7 | O=C(O)C(F)(F)F.[2H]C([2H])([2H])n1ncc2cc(-c3c(-c4cnn(CC(C)(C)OC)c4)[nH]c4ncc5c(c34)C3(CC4(CN(S(=O)(=O)CC)C4)C3)C(=O)N5C)ccc21 [Example 96, 1-(Ethylsulfonyl)-2″-(1-(2-methoxy-2-methylpropyl)-1H-pyrazol-4-yl)-6″-methyl-1″-(1-(methyl-d3)-1H-indazol-5-yl)-3″,6″-dihydro-7″H-dispiro[azetidine-3,1′-cyclobutane-3′,8″-dipyrrolo[2,3-b:3′,2′-d]pyridin]-7″-one, trifluoroacetate salt] | > 2500 | ≤ 100 | > 2500 | ≤ 100
8 | CN1C(=O)C2(CCN(S(=O)(=O)C3(CC#N)CC3)C2)c2c1cnc1[nH]c(-c3cnn(C)c3)c(-c3ccc4c(cnn4C)c3)c21 (racemic) [Example 71, 2-(1-((6-Methyl-1-(1-methyl-1H-indazol-5-yl)-2-(1-methyl-1H-pyrazol-4-yl)-7-oxo-6,7-dihydro-3H-spiro[dipyrrolo[2,3-b:3′,2′-d]pyridine-8,3′-pyrrolidin]-1′-yl)sulfonyl)cyclopropyl)acetonitrile, trifluoroacetate salt] | 1250 to 2500 | ≤ 100 | 1250 to 2500 | ≤ 100
9 | COc1cccc(NC(=O)N2CCC3(CC2)C(=O)N(C)c2cnc4[nH]c(-c5ccc(CN6CCC(S(C)(=O)=O)CC6)cc5)c(-c5ccccc5)c4c23)c1 [Example 21, N-(3-Methoxyphenyl)-6-methyl-2-(4-((4-(methylsulfonyl)piperidin-1-yl)methyl)phenyl)-7-oxo-1-phenyl-6,7-dihydro-3H-spiro[dipyrrolo[2,3-b:3′,2′-d]pyridine-8,4′-piperidine]-1′-carboxamide, trifluoroacetate salt] | > 2500 | ≤ 100 | > 2500 | ≤ 100
10 | CC(=O)N1CCC(n2cc(-c3[nH]c4ncc5c(c4c3-c3ccc4c(cnn4C)c3)C3(CCN(C4(CC#N)CCC4)CC3)C(=O)N5C)cn2)CC1 [Example 41, 2-(1-(2-(1-(1-Acetylpiperidin-4-yl)-1H-pyrazol-4-yl)-6-methyl-1-(1-methyl-1H-indazol-5-yl)-7-oxo-6,7-dihydro-3H-spiro[dipyrrolo[2,3-b:3′,2′-d]pyridine-8-4′-piperidin]-1′-yl)cyclobutyl)acetonitrile, trifluoroacetate salt] | 100 to 500 | ≤ 100 | ≤ 100 | ≤ 100
11 | O=C(O)C(F)(F)F.[2H]C([2H])([2H])n1ccc2cc(-c3c(-c4cnn(CCOC)c4)[nH]c4ncc5c(c34)C3(CCN(C4(CC#N)CCC4)CC3)C(=O)N5C)ccc21 [Example 46, 2-(1-(2-(1-(2-Methoxyethyl)-1H-pyrazol-4-yl)-6-methyl-1-(1-(methyl-d3)-1H-indol-5-yl)-7-oxo-6,7-dihydro-3H-spiro[dipyrrolo[2,3-b:3′,2′-d]pyridine-8,4′-piperidin]-1′-yl)cyclobutyl)acetonitrile, trifluoroacetate salt] | 500 to 1250 | ≤ 100 | 500 to 1250 | ≤ 100
12 | CC(CC#N)n1cc(-c2ccc(-c3c(-c4cnn(C)c4)[nH]c4ncc5c(c34)C3(CCCC3)C(=O)N5C)cc2)cn1 (racemic) [Example 14, 3-(4-(4-(6′-Methyl-2′-(1-methyl-1H-pyrazol-4-yl)-7′-oxo-6′,7′-dihydro-3′H-spiro[cyclopentane-1,8′-dipyrrolo[2,3-b:3′,2′-d]pyridin]-1′-yl)phenyl)-1H-pyrazol-1-yl)butanenitrile trifluoroacetate salt] | > 2500 | 100 to 500 | > 2500 | ≤ 100
13 | CO[C@H]1CC[C@@](CC#N)(N2CCC3(CC2)C(=O)N(C)c2cnc4[nH]c(-c5cnn(C)c5)c(-c5ccc6c(cnn6C)c5)c4c23)CC1 (single isomer, unassigned) [Example 75a, 2-(4-Methoxy-1-(6-methyl-1-(1-methyl-1H-indazol-5-yl)-2-(1-methyl-1H-pyrazol-4-yl)-7-oxo-6,7-dihydro-3H-spiro[dipyrrolo[2,3-b:3′,2′-d]pyridine-8,4′-piperidin]-1′-yl)cyclohexyl)acetonitrile] | 100 to 500 | ≤ 100 | 100 to 500 | ≤ 100
14 | CN1C(=O)C2(CCN(C(C)(C)c3nnc[nH]3)CC2)c2c1cnc1[nH]c(-c3cnn(C)c3)c(-c3ccc4c(cnn4C)c3)c21 [Example 77, 1′-(2-(4H-1,2,4-Triazol-3-yl)propan-2-yl)-6-methyl-1-(1-methyl-1H-indazol-5-yl)-2-(1-methyl-1H-pyrazol-4-yl)-3,6-dihydro-7H-spiro[dipyrrolo[2,3-b:3′,2′-d]pyridine-8,4′-piperidin]-7-one] | 500 to 1250 | ≤ 100 | 500 to 1250 | ≤ 100
15 | CN1C(=O)C2(CCCC2)c2c1cnc1[nH]c(-c3cnn(Cc4ccncc4)c3)c(-c3ccc4c(cnn4C)c3)c21 [Example 8, 6′-Methyl-1′-(1-methyl-1H-indazol-5-yl)-2′-(1-(pyridin-4-ylmethyl)-1H-pyrazol-4-yl)-3′,6′-dihydro-7′H-spiro[cyclopentane-1,8′-dipyrrolo[2,3-b:3′,2′-d]pyridin]-7′-one trifluoroacetate salt] | 1250 to 2500 | ≤ 100 | > 2500 | ≤ 100
